In publication PMC12865225 (Clinical and Translational Science, 2026):
Where “and” joins values, the source holds several entries; their conditions need not be identical. Equal entries are not always repeated. Marks after values point to notes of the source that are not given here.

Columns and labels:
OAT2 = system: T1, OAT2; assay: OAT2 inhibition, methotrexate uptake into HEK293 cells; format: cell-based, human; settings: 200 μM inhibitor, 34 nM methotrexate
T1 construct: expressed in transfected cells; host or cells: HEK293 (recombinant baculovirus-mediated transduction)
Procedure: The human transporters OATP1B1, OATP1B3, OATP2B1, and OAT1‐OAT4 and a negative control protein (enhanced yellow fluorescent protein, eYFP) were transiently expressed in human embryonic kidney 293 (HEK293) cells by recombinant baculovirus‐mediated transduction. Baculoviruses carrying human genes for the transporters were prepared as reported previously. HEK293 cells were cultured in DMEM containing 10% fetal bovine serum at 37°C and 5% CO2 and passaged two to three times per week. For the transport studies, 0.05 × 10^6 cells for 48‐well plates (OATPs) or 0.06 × 10^6 cells for 24‐well plates (OATs) were seeded onto cell‐culture treated well plates coated with poly‐D‐lysine. […]
(§1) In the OATP inhibition assays, inhibitors in warm TP‐buffer were directly applied to cells after media removal, followed by a 30‐min preincubation step in the presence of inhibitors. […] OAT1 and OAT3 cells were lysed with 200 μL of 1 M sodium hydroxide for 10 min, and 150 μL of these samples were transferred to a black well plate for fluorescein quantification. […]
(§2) For the inhibition data analysis, the average of measured concentrations in the control cells was subtracted from the average of measured concentrations in transporter‐expressing cells for each inhibitor concentration and then normalized to the vehicle sample that represents 100% transport activity. […]

OAT4 = target: T2, OAT4 (Homo sapiens, UniProt Q9NSA0); assay: OAT4 inhibition, methotrexate uptake into HEK293 cells; format: cell-based; settings: for Calculated R-value OAT4: R = I max,u/IC50, cut-off ≥ 0.02 (MATE threshold)
T2 construct: expressed in transfected cells; host or cells: HEK293 (recombinant baculovirus-mediated transduction)
T2 sequence (Q9NSA0 1-550): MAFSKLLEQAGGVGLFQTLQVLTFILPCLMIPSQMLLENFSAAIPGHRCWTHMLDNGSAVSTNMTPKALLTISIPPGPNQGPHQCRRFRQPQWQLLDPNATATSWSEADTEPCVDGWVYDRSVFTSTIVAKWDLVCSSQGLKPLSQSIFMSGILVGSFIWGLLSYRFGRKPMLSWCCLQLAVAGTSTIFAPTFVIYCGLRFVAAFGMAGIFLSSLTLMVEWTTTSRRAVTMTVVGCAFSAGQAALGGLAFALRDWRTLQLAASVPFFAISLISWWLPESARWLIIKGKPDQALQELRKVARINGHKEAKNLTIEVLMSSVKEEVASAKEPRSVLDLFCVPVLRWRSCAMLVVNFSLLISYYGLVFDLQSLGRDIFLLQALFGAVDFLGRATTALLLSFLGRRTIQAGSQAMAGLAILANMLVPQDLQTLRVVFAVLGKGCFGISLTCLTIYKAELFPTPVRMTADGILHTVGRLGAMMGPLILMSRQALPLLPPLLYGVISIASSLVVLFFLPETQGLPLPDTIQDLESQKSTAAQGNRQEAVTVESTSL
Procedure: The human transporters OATP1B1, OATP1B3, OATP2B1, and OAT1‐OAT4 and a negative control protein (enhanced yellow fluorescent protein, eYFP) were transiently expressed in human embryonic kidney 293 (HEK293) cells by recombinant baculovirus‐mediated transduction. Baculoviruses carrying human genes for the transporters were prepared as reported previously. HEK293 cells were cultured in DMEM containing 10% fetal bovine serum at 37°C and 5% CO2 and passaged two to three times per week. For the transport studies, 0.05 × 10^6 cells for 48‐well plates (OATPs) or 0.06 × 10^6 cells for 24‐well plates (OATs) were seeded onto cell‐culture treated well plates coated with poly‐D‐lysine. After 1 day, cells were transduced to produce recombinant proteins by changing media to DMEM containing 30 μL (48‐well plates) or 60 μL (24‐well plates) of recombinant baculovirus and 3 mM (OATs) or 5 mM (OATPs) sodium butyrate in a total media volume of 500 μL. The cells were cultured for a further 2 days before the transport assays.
For the transport studies, media were removed and cells were washed once with warm transport uptake buffer (TP‐buffer—pH 7.4 HBSS with 25 mM HEPES and 4 mM sodium bicarbonate). Each experiment included triplicate (OATP) or duplicate (OAT) samples for every test condition. […]
as §1, §2

IC50 (OAT4; IC50 (95% CI), μM OAT4, 34 nM methotrexate, 10 min, no preincubation)	Calculated R-value OAT4 (OAT4)	SMILES	inhibition of OAT2-mediated transport of methotrexate (OAT2)
7.2 µM and 7.23 µM	0.19 ^d	Cc1onc(-c2c(Cl)cccc2Cl)c1C(=O)N[C@@H]1C(=O)N2[C@@H]1SC(C)(C)[C@@H]2C(=O)O [Dicloxacillin]	neither compound substantially inhibited
–	0.08 ^d	Cc1onc(-c2c(F)cccc2Cl)c1C(=O)N[C@@H]1C(=O)N2[C@@H]1SC(C)(C)[C@@H]2C(=O)O [Flucloxacillin]	neither compound substantially inhibited
